Data: ChEMBL document CHEMBL5705893, “Targeting the mitotic checkpoint for cancer therapy with NMS-P715, an inhibitor of MPS1 kinase” (Cancer Res, 2010)
The source made the active and inactive calls. The calls are words filed in the database; no cut-off is given here.

Columns and labels:
[1] = test system: NCI-H1770; assay: Antiproliferative activity against human NCI-H1770 cells assessed as inhibition of cell growth incubated for 72 hrs by celltiter-glo assay; format: functional, cell-based; details: NCI-H1770, 72 h
[2] = test system: LP-1; assay: Antiproliferative activity against human LP-1 cells assessed as inhibition of cell growth incubated for 72 hrs by celltiter-glo assay; format: functional, cell-based; details: LP-1, 72 h
[3] = target: Serine/threonine-protein kinase haspin (Homo sapiens, UniProt Q8TF76); assay: Inhibition of recombinant Haspin (unknown origin)
[4] = target: Cyclin-dependent kinase 1/cyclin B1 (Homo sapiens, UniProt P06493); assay: Inhibition of recombinant CDK1/CYCB (unknown origin); format: protein-complex assay
[5] = Antiproliferative activity against human RPMI 8226/ADR cells assessed as inhibition of cell growth incubated for 72 hrs by celltiter-glo assay; format: functional, cell-based
[6] = test system: A2780; assay: Antitumor activity against human A2780 cells xenografted in Athymic nu-nu nude mouse assessed as reduction in histone H3 phosphorylation at 100 mg/kg, po administered for 2 days and measured after 6 hrs by Western blot analysis; format: functional, organism-based; details: time 54.0 hrs
[7] = target: Serine/threonine-protein kinase NIM1 (Homo sapiens, UniProt Q8IY84); assay: Inhibition of recombinant NIM1 (unknown origin)
[8] = test system: IGROV-1; assay: Antiproliferative activity against human IGROV-1 cells assessed as inhibition of cell growth incubated for 72 hrs by celltiter-glo assay; format: functional, cell-based; details: IGROV-1, 72 h
[9] = test system: COLO-741; assay: Antiproliferative activity against human COLO-741 cells assessed as inhibition of cell growth incubated for 72 hrs by celltiter-glo assay; format: functional, cell-based; details: COLO-741, 72 h
[10] = test system: A-375; assay: Antitumor activity against human A-375 cells xenografted in Athymic nu-nu nude mouse assessed as tumor growth inhibition at 100 mg/kg, po measured after 10 days; format: functional; details: A-375, 240 h, time 10 day, read-out: TGI
[11] = target: Serine/threonine-protein kinase PAK 4 (Homo sapiens, UniProt O96013); assay: Inhibition of recombinant PAK4 (unknown origin)
[12] = target: ALK tyrosine kinase receptor (Homo sapiens, UniProt Q9UM73); assay: Inhibition of recombinant ALK (unknown origin)
[13] = test system: SU-DHL-1; assay: Antiproliferative activity against human SU-DHL-1 cells assessed as inhibition of cell growth incubated for 72 hrs by celltiter-glo assay; format: functional, cell-based; details: SU-DHL-1, 72 h
[14] = test system: HCT-116; assay: Growth inhibition of human HCT-116 cells at 1 micromol/L incubated for 24 hrs; format: functional, cell-based; details: dose 1.0 µmol/L
[15] = test system: COLO-678; assay: Antiproliferative activity against human COLO-678 cells assessed as inhibition of cell growth incubated for 72 hrs by celltiter-glo assay; format: functional, cell-based; details: COLO-678, 72 h
[16] = test system: HeLa; assay: Effect on BUBR1 level in human nocodazole-arrested HeLa cells at 1 micromol/L in presence of MG132; format: functional, cell-based; details: dose 1.0 µmol/L
[17] = test system: U2OS; assay: Induction of mitotic arrest in human U2OS cells expressing YFP-alpha-tubulin assessed as reduction in mitotic-phase length at 1 micromol/L by time-lapse microscopic analysis; format: functional, cell-based; details: dose 1.0 µmol/L
[18] = target: Protein-tyrosine kinase 6 (Homo sapiens, UniProt Q13882); assay: Inhibition of recombinant BRK (unknown origin)
[19] = test system: U2OS; assay: Induction of mitotic arrest in human U2OS cells expressing YFP alpha-tubulin assessed as chromosome misalignment in metaphase incubated for 1 hr by DAPI staining based confocal microscopic analysis; format: functional, cell-based
[20] = Cmax in Athymic nu-nu mouse at 100 mg/kg, po measured upto 24 hrs by LC-MS/MS analysis; format: ADME, organism-based; details: in vivo
[21] = test system: U2OS; assay: Induction of mitotic arrest in human U2OS cells at 1 micromol/L incubated for 86 hrs by time-lapse microscopic analysis; format: functional, cell-based; details: dose 1.0 µmol/L
[22] = test system: U-266; assay: Antiproliferative activity against human U-266 cells assessed as inhibition of cell growth incubated for 72 hrs by celltiter-glo assay; format: functional, cell-based; details: U-266, 72 h
[23] = Volume of distribution at steady state in Athymic nu-nu mouse at 10 mg/kg, iv measured upto 24 hrs by LC-MS/MS analysis; format: ADME, organism-based; details: in vivo, read-out: Vdss
[24] = test system: MIA PaCa-2; assay: Antiproliferative activity against human MIA PaCa-2 cells assessed as inhibition of cell growth incubated for 72 hrs by celltiter-glo assay; format: functional, cell-based; details: MIA PaCa-2, 72 h
[25] = test system: NCI-H526; assay: Antiproliferative activity against human NCI-H526 cells assessed as inhibition of cell growth incubated for 72 hrs by celltiter-glo assay; format: functional, cell-based; details: NCI-H526, 72 h
[26] = test system: MOLT-4; assay: Antiproliferative activity against human MOLT-4 cells assessed as inhibition of cell growth incubated for 72 hrs by celltiter-glo assay; format: functional, cell-based; details: MOLT-4, 72 h
[27] = test system: SK-MEL-2; assay: Antiproliferative activity against human SK-MEL-2 cells assessed as inhibition of cell growth incubated for 72 hrs by celltiter-glo assay; format: functional, cell-based; details: SK-MEL-2, 72 h
[28] = test system: SKM-1; assay: Antiproliferative activity against human SKM-1 cells assessed as inhibition of cell growth incubated for 72 hrs by celltiter-glo assay; format: functional, cell-based; details: SKM-1, 72 h
[29] = Half life in Athymic nu-nu mouse at 10 mg/kg, iv measured upto 24 hrs by LC-MS/MS analysis; format: ADME, organism-based; details: in vivo
[30] = Inhibition of recombinant PDGFR (unknown origin); design: species or system Homo sapiens
[31] = test system: Toledo; assay: Antiproliferative activity against human Toledo cells assessed as inhibition of cell growth incubated for 72 hrs by celltiter-glo assay; format: functional, cell-based
[32] = target: Fibroblast growth factor receptor 1 (Homo sapiens, UniProt P11362); assay: Inhibition of recombinant FGFR1 (unknown origin)
[33] = test system: BJ; assay: Antiproliferative activity against human BJ cells assessed as inhibition of cell growth incubated for 72 hrs by celltiter-glo assay; format: functional, cell-based
[34] = test system: CCRF-CEM; assay: Antiproliferative activity against human CCRF-CEM cells assessed as inhibition of cell growth incubated for 72 hrs by celltiter-glo assay; format: functional, cell-based
[35] = Half life in Athymic nu-nu mouse at 10 mg/kg, po measured upto 24 hrs by LC-MS/MS analysis; format: ADME, organism-based; details: in vivo
[36] = test system: K562; assay: Antiproliferative activity against human K562 cells assessed as inhibition of cell growth incubated for 72 hrs by celltiter-glo assay; format: functional, cell-based; details: K562, 72 h
[37] = test system: UACC-257; assay: Antiproliferative activity against human UACC-257 cells assessed as inhibition of cell growth incubated for 72 hrs by celltiter-glo assay; format: functional, cell-based; details: UACC-257, 72 h
[38] = test system: NCI-H522; assay: Antiproliferative activity against human NCI-H522 cells assessed as inhibition of cell growth incubated for 72 hrs by celltiter-glo assay; format: functional, cell-based; details: NCI-H522, 72 h
[39] = test system: NCI/ADR-RES; assay: Antiproliferative activity against human NCI-ADR-RES cells assessed as inhibition of cell growth incubated for 72 hrs by celltiter-glo assay; format: functional, cell-based
[40] = target: Activated CDC42 kinase 1 (Homo sapiens, UniProt Q07912); assay: Inhibition of recombinant ACK1 (unknown origin)
[41] = test system: HeLa; assay: Induction of mitotic arrest in human nocodazole-arrested HeLa cells assessed as delocalization of BUB1 at 1 micromol/L in presence of MG132; format: functional, cell-based; details: dose 1.0 µmol/L
[42] = test system: COLO 320; assay: Antiproliferative activity against human COLO 320 cells assessed as inhibition of cell growth incubated for 72 hrs by celltiter-glo assay; format: functional, cell-based; details: COLO 320, 72 h

Chain of Protein-tyrosine kinase 6 (Q13882 whole entry): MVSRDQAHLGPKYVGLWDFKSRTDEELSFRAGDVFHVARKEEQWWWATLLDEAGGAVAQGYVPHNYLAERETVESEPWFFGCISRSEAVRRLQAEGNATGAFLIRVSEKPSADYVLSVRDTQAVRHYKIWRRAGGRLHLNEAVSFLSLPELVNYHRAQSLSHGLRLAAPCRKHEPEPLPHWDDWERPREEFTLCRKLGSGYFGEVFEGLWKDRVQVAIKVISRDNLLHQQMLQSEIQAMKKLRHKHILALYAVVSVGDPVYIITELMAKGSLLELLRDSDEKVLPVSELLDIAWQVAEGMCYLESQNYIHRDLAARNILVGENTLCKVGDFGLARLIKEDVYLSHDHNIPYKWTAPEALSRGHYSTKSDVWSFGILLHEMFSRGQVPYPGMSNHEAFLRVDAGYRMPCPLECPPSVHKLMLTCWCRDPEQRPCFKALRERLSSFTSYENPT
Chain of Serine/threonine-protein kinase NIM1 (Q8IY84 whole entry): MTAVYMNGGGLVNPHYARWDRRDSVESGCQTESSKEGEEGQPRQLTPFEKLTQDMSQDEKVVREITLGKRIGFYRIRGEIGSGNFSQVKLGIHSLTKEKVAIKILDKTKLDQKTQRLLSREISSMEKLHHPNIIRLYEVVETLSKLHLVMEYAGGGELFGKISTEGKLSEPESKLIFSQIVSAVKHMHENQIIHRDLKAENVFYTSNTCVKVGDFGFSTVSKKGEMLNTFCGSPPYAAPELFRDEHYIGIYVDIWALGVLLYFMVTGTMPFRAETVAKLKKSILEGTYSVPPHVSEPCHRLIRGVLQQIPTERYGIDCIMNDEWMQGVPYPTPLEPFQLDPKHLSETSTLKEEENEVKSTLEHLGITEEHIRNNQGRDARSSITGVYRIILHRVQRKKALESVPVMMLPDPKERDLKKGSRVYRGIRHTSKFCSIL
Chain of Serine/threonine-protein kinase haspin (Q8TF76 whole entry): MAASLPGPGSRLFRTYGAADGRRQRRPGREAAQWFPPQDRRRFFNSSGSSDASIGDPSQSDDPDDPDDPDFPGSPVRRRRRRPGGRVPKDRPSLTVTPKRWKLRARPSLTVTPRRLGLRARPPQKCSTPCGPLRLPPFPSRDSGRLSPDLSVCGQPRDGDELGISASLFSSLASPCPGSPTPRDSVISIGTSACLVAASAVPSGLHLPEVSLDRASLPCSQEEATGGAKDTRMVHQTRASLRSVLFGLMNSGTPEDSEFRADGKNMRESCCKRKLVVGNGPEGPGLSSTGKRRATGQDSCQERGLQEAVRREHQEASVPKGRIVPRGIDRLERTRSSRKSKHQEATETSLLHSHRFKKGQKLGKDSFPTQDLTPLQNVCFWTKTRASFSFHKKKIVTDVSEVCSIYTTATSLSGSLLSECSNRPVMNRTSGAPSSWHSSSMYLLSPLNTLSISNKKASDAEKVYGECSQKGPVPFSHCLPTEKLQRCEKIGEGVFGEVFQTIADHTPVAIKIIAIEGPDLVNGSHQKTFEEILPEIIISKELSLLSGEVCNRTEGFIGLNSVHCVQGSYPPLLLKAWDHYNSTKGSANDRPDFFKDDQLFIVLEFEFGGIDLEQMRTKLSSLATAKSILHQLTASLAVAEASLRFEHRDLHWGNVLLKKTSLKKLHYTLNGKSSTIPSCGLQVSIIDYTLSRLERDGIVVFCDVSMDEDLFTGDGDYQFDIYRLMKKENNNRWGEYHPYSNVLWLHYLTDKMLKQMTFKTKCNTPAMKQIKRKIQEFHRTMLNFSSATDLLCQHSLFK
Chain of Cyclin-dependent kinase 1/cyclin B1 (P06493 whole entry): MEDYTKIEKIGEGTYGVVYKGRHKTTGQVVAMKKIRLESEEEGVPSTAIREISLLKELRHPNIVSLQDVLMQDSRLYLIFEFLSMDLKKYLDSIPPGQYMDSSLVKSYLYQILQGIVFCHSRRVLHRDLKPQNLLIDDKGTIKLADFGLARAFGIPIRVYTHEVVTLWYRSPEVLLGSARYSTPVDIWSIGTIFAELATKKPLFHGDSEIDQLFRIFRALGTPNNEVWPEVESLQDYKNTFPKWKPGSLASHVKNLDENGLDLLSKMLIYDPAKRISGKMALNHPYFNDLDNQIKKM
Chain of Cyclin-dependent kinase 1/cyclin B1 (P14635 whole entry, further chain): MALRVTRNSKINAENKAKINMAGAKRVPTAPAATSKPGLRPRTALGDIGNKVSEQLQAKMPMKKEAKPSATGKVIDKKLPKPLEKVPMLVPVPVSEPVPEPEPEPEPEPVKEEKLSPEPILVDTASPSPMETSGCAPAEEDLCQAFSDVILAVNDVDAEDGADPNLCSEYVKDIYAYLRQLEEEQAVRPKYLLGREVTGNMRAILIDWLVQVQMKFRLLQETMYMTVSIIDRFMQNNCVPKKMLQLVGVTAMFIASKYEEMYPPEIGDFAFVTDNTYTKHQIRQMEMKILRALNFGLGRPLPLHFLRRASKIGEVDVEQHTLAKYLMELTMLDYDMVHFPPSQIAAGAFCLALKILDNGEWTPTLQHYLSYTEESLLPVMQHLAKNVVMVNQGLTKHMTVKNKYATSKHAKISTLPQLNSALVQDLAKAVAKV
Chain of Fibroblast growth factor receptor 1 (P11362 whole entry): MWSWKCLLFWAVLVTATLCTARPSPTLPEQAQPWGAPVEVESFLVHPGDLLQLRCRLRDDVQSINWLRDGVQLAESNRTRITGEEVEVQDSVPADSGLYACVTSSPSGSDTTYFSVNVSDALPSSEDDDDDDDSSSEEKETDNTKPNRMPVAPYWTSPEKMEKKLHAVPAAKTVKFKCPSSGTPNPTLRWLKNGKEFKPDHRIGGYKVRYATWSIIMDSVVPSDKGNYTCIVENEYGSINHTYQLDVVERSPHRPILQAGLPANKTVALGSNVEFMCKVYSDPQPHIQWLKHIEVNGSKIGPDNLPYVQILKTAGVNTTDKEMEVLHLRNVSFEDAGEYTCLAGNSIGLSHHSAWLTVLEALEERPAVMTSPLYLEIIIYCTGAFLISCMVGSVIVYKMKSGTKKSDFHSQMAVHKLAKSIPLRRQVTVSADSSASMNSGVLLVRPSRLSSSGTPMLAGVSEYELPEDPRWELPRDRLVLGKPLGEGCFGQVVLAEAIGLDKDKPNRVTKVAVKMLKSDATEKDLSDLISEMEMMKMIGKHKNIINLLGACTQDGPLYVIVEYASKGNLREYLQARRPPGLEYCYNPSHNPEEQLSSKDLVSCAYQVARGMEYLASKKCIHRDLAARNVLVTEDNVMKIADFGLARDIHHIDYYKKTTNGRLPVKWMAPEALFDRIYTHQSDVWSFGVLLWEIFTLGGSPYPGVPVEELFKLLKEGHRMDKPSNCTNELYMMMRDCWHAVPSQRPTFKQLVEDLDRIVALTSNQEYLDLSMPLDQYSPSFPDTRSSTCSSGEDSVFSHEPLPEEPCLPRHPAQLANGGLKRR
Chain of Activated CDC42 kinase 1 (Q07912 whole entry): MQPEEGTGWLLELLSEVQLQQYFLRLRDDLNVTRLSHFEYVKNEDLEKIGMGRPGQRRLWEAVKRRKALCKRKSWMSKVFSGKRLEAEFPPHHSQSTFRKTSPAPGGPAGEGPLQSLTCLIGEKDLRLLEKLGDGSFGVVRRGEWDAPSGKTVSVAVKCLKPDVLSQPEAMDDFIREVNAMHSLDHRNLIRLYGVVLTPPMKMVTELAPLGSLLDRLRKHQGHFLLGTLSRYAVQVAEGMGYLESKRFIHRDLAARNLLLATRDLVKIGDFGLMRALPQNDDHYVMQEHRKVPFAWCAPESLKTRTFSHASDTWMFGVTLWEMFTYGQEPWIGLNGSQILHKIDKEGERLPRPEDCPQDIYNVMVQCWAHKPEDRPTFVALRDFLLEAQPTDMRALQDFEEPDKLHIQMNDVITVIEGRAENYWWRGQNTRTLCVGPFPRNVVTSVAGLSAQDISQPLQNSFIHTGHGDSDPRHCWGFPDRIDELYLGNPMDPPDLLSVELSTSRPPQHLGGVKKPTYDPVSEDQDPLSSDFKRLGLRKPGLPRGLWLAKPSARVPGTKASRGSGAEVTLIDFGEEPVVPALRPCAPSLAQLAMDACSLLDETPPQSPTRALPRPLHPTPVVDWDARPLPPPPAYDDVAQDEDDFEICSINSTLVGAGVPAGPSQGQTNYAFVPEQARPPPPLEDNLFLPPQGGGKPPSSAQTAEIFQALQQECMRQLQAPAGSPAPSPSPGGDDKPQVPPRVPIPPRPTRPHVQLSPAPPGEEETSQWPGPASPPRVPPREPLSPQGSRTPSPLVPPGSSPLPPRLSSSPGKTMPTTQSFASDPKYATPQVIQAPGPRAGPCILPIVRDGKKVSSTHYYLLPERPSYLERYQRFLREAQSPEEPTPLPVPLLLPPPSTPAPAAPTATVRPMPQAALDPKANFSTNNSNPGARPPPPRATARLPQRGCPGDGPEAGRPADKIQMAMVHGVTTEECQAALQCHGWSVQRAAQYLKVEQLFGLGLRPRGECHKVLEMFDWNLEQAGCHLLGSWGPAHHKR
Chain of Serine/threonine-protein kinase PAK 4 (O96013 whole entry): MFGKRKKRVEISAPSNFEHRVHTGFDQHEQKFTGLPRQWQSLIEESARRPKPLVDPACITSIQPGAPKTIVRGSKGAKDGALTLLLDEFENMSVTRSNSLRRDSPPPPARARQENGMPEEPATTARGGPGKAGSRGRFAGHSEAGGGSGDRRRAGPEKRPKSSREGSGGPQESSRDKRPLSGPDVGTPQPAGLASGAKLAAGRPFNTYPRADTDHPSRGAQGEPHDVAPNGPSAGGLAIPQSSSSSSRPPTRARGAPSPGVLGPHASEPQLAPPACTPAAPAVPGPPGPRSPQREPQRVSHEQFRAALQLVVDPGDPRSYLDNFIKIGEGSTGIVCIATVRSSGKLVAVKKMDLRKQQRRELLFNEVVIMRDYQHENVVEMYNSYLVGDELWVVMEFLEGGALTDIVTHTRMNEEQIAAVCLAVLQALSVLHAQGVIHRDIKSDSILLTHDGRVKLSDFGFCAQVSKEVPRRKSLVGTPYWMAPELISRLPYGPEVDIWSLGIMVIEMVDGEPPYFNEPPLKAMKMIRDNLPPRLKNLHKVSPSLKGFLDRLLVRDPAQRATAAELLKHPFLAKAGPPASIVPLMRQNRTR

## CCc1cccc(CC)c1NC(=O)c1nn(C)c2c1CCc1cnc(Nc3ccc(C(=O)NC4CCN(C)CC4)cc3OC(F)(F)F)nc1-2
[1]
  IC50: 4.42 µM
[2]
  IC50: 3.48 µM
[3]
  IC50: > 10 µM
[4]
  IC50: > 10 µM
[5]
  IC50: 1490 nM
[6]
  Activity: Active
[7]
  IC50: > 10 µM
[8]
  IC50: 1150 nM
[9]
  IC50: 10 µM
[10]
  inhibition in vivo at 100 mg/kg: 43%
[11]
  IC50: > 10 µM
[12]
  IC50: > 10 µM
[13]
  IC50: 3.31 µM
[14]
  growth inhibition (GI): Active
[15]
  IC50: 10 µM
[16]
  Activity: Active
[17]
  Activity: Active
[18]
  IC50: > 10 µM
[19]
  Activity: Active
[20]
  Cmax: 1790 nM
[21]
  Activity: Active
[22]
  IC50: 5.93 µM
[23]
  Vd: 5.45 L/kg
[24]
  IC50: 2550 nM
[25]
  IC50: 2200 nM
[26]
  IC50: 1040 nM
[27]
  IC50: 1490 nM
[28]
  IC50: 10 µM
[29]
  half-life: 459 min
[30]
  IC50: > 10 µM
[31]
  IC50: 1720 nM
[32]
  IC50: > 10 µM
[33]
  IC50: 5.47 µM
[34]
  IC50: 1430 nM
[35]
  half-life: 481 min
[36]
  IC50: 2700 nM
[37]
  IC50: 1870 nM
[38]
  IC50: 1200 nM
[39]
  IC50: 2480 nM
[40]
  IC50: > 10 µM
[41]
  Activity: Active
[42]
  IC50: 1280 nM
